From ChEMBL document CHEMBL4673176, “Virulence attenuating combination therapy: a potential multi-target synergy approach to treat Pseudomonas aeruginosa infections in cystic fibrosis patients” (RSC Med Chem, 2020) come the findings set out here.

Test [1] deals with T1, Transcriptional regulator MvfR (Pseudomonas aeruginosa PA14) (UniProt A0A072ZLE6).
T1 sequence (whole entry): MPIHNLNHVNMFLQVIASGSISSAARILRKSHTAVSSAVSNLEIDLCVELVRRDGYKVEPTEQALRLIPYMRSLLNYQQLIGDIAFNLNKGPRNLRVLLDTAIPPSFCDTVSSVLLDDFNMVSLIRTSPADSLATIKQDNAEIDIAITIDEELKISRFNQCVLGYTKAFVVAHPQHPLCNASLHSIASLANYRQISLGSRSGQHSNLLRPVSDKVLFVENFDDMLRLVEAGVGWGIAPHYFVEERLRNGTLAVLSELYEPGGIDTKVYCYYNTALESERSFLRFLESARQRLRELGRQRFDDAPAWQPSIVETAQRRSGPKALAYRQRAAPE
Description: Inhibition of PqsR in Pseudomonas aeruginosa PA14 assessed as potentiation of meropenem-mediated reduction in biofilm CFU at 10 uM incubated for 24 hrs relative to meropenem alone.

Test [2] concerns the target T1, Transcriptional regulator MvfR (Pseudomonas aeruginosa PA14). Kind of test: Inhibition of PqsR in Pseudomonas aeruginosa PA14 assessed as potentiation of tobramycin-mediated reduction in biofilm CFU at 10 uM incubated for 24 hrs relative to tobramycin alone.
Test [3] concerns Pseudomonas aeruginosa. Kind of test: Inhibition of quorum sensing system in Pseudomonas aeruginosa MCC-2080 assessed as reduction in biofilm formation incubated for 24 hrs by crystal violet staining based UV-Vis spectrophotometric method relative to control.
The test system of test [4] is Pseudomonas aeruginosa. Description: Antibacterial activity against Pseudomonas aeruginosa PAO1 infected in C57BL/6J mouse assessed as mouse survival at 100 uM administered intranasally at the time of infection and every 12 hrs and measured over 96 hrs. It counts as functional. The note with it: PAO1, inhaled or nasal.
Test [5] is described as follows: Competitive inhibition of FAM-labelled PscF (69 to 85 residues) binding to Pseudomonas aeruginosa PscE/PscG by fluorescence polarization.
Test [6] can be described thus: Inhibition of PqsR/PqsD in Pseudomonas aeruginosa PA14 assessed as reduction in biofilm formation by crystal violet assay.

Consider `O=C(CSc1nc2cc([N+](=O)[O-])ccc2[nH]1)Nc1ccc(Oc2ccccc2)cc1`, for which the fold change (FC) in test [1] is 178; in test [2] it was 17.

For `O=c1c(O)c(-c2ccccc2)oc2cc(O)cc(O)c12`, the IC85 in the test on Pseudomonas aeruginosa [3] came to 100 µM. Take `Cc1cccc2c3c(ccc12)C1=C(C(=O)C3=O)[C@@H](C)CO1` [DIHYDROTANSHINONE I]: the survival at 100 µM with Pseudomonas aeruginosa [4] was determined as 90%. Also, the 50% inhibitory concentration (IC50) in test [5] turned out to be 0.68 µM.

`CS(=O)(=O)c1nccc(-n2cnnn2)n1`: in test [6], the 50% inhibitory concentration (IC50) came out at 100 µM.

As a reminder, the IC50 is the concentration needed to halve the response being measured.
